According to US4217305A, “Phenylethanolamine derivatives” (Yamanouchi Pharmaceutical Co., Ltd., priority 1977, dated 1980):
Where a name gives a salt, the structure may show the parent alone. Read-outs that look alike come from different tables or passages of the source.

Experiments:
Format in all cases: in vivo
α-Adrenergic = α-Adrenergic blocking action: antagonism of hypertensive response to phenylephrine in anesthetized rats; settings: for α-blocking (Rat) ED50: i.v.; for ED50: Rattus norvegicus, iv, read-out: α-blocking (Rat) ED50
Description: A. α-Adrenergic blocking action: (a) The blood pressure was measured in rats anesthetized with urethane and treated with pentolinium.

β-Adrenergic = β-Adrenergic blocking action: antagonism of isoproterenol induced tachycardia in rats; settings: reserpine pretreated, pentobarbital anesthetized rats, isoproterenol 0.1 μg/Kg iv.; for β-blocking (Rat) ED50: i.v.; for ED50: Rattus norvegicus, iv
Description: Bilateral vagotomy was performed at the neck. The effects of the test samples to antagonize the isoproterenol (0.1 μg/Kg iv.) induced tachycardia were measured and the results were shown in Table I.

[1] = test system: spontaneously hypertensive rats; test: Antihypertensive effects in spontaneously hypertensive rats, oral administration; settings: at 10 mg/Kg p.o., mean ± S.E. of 5 to 10 animals, measured indirectly from the tail
Description: B. Antihypertensive effects in spontaneously hypertensive rats: Oral administration: The systolic blood pressure was measured indirectly from the tail using a programmed electro-sphygmanometer (Nacro Bio-Systems Inc., PE-300) on spontaneously hypertensive rats having a systolic blood pressure of higher than 150 mmHg, the result being shown in Table II.

[2] = urethane anesthetized, pentolinium treated rats, phenylephrine 10 μg/Kg i.v., hydrochloride
[3] = urethane anesthetized, pentolinium treated rats, phenylephrine 10 μg/Kg i.v.

COc1ccccc1CCC(C)NCC(O)c1ccc(C)c(S(N)(=O)=O)c1.Cl (stereo not drawn) [36(i1 + i2), 5-{1-Hydroxy-2-[3-(2-methoxyphenyl)-1-methylpropylamino]-ethyl}-2-methylbenzenesulfonamide hydrochloride]
α-blocking (Rat) ED50 (α-Adrenergic; [2]): 0.43 mg/kg | β-blocking (Rat) ED50 (β-Adrenergic; hydrochloride): 0.095 mg/kg | antihypertensive effect: change in systolic blood pressure ([1]; hydrochloride, 10 mg/kg): -40 ± 6.6 mmHg

COc1ccccc1CCC(C)NCC(O)c1ccc(C)c(S(N)(=O)=O)c1.Cl (stereo not drawn) [36(i1), 5-{1-hydroxy-2-[3-(2-methoxyphenyl)-1-methylpropylamino]ethyl}-2-methylbenzenesulfonamide hydrochloride]
α-blocking (Rat) ED50 (α-Adrenergic; [2]): 1.2 mg/kg | β-blocking (Rat) ED50 (β-Adrenergic; hydrochloride): 0.071 mg/kg | antihypertensive effect: change in systolic blood pressure ([1]; hydrochloride, 10 mg/kg): -18 ± 6.1 mmHg

COc1ccccc1CCC(C)NCC(O)c1ccc(C)c(S(N)(=O)=O)c1.Cl (stereo not drawn) [36(i2), 5-{1-hydroxy-2-[3-(2-methoxyphenyl)-1-methylpropylamino]ethyl}-2-methylbenzenesulfonamide hydrochloride]
α-blocking (Rat) ED50 (α-Adrenergic; [2]): 0.093 mg/kg | β-blocking (Rat) ED50 (β-Adrenergic; hydrochloride): 0.41 mg/kg | antihypertensive effect: change in systolic blood pressure ([1]; hydrochloride, 10 mg/kg): -33 ± 5.7 mmHg

COc1ccccc1OCC(C)NCC(O)c1ccc(C)c(S(N)(=O)=O)c1 (stereo not drawn) [69(i1 + i2), 5-{1-hydroxy-2-[2-(2-methoxyphenoxy)-1-methylethylamino]ethyl}-2-methylbenzenesulfonamide]
α-blocking (Rat) ED50 (α-Adrenergic; [3]): 0.27 mg/kg | β-blocking (Rat) ED50 (β-Adrenergic): 0.083 mg/kg | antihypertensive effect: change in systolic blood pressure ([1]; 10 mg/kg): -43 ± 5.8 mmHg

COc1ccccc1OCC(C)NCC(O)c1ccc(C)c(S(N)(=O)=O)c1 (stereo not drawn) [69(i1), 5-{1-hydroxy-2-[2-(2-methoxyphenoxy)-1-methylethylamino]ethyl}-2-methylbenzenesulfonamide]
α-blocking (Rat) ED50 (α-Adrenergic; [3]): 0.24 mg/kg | β-blocking (Rat) ED50 (β-Adrenergic): 0.057 mg/kg | antihypertensive effect: change in systolic blood pressure ([1]; 10 mg/kg): -28 ± 7.7 mmHg

COc1ccccc1OCC(C)NCC(O)c1ccc(C)c(S(N)(=O)=O)c1 (stereo not drawn) [69(i2), 5-{1-hydroxy-2-[2-(2-methoxyphenoxy)-1-methylethylamino]ethyl}-2-methylbenzenesulfonamide]
α-blocking (Rat) ED50 (α-Adrenergic; [3]): 0.054 mg/kg | β-blocking (Rat) ED50 (β-Adrenergic): 0.47 mg/kg | antihypertensive effect: change in systolic blood pressure ([1]; 10 mg/kg): -32 ± 6.7 mmHg

CC(NCC(O)c1ccc(O)c(S(N)(=O)=O)c1)C1COc2ccccc2O1 (stereo not drawn) [70(i1'), 2-hydroxy-5-{1-hydroxy-2-[1-(1,4-benzodioxan-2-yl)ethylamino]ethyl}benzenesulfonamide]
antihypertensive effect: change in systolic blood pressure [1]: -27 ± 6.1 mmHg

COc1ccc(C(O)CNC(C)C2COc3ccccc3O2)cc1S(N)(=O)=O (stereo not drawn) [72(i1'), 5-{1-hydroxy-2-[1-(1,4-benzodioxan-2-yl)ethylamino]ethyl}-2-methoxybenzenesulfonamide hydrochloride (i1 ')]
antihypertensive effect: change in systolic blood pressure [1]: -30 ± 4.3 mmHg

COc1ccccc1OCC(C)(C)NCC(O)c1ccc(C)c(S(N)(=O)=O)c1 (stereo not drawn) [Example 9]
ED50 (α-Adrenergic; [3]): 0.89 mg/kg | ED50 (β-Adrenergic): 0.26 mg/kg | antihypertensive effect: change in systolic blood pressure [1]: -25 ± 4.2 mmHg

COc1cc(O)ccc1OCCNCC(O)c1ccc(C)c(S(N)(=O)=O)c1 (stereo not drawn) [Example 13, 5-{1-Hydroxy-2-[2-(4-hydroxy-2-methoxyphenoxy)ethylamino]ethyl}-2-methylbenzenesulfonamide]
ED50 (α-Adrenergic; [3]): 0.23 mg/kg | ED50 (β-Adrenergic): 0.014 mg/kg

Cc1ccc(C(O)CNCCOc2ccccc2CO)cc1S(N)(=O)=O (stereo not drawn) [Example 15, 5-{1-Hydroxy-2-[2-(2-hydroxymethylphenoxy)ethylamino]-ethyl}-2-methylbenzenesulfonamide]
ED50 (α-Adrenergic; [3]): 0.13 mg/kg | ED50 (β-Adrenergic): 0.15 mg/kg | antihypertensive effect: change in systolic blood pressure [1]: -11 ± 4.3 mmHg

C=CCOc1ccccc1OCCNCC(O)c1ccc(C)c(S(N)(=O)=O)c1.Cl (stereo not drawn) [Example 18, 5-{2-[2-(2-Allyloxyphenoxy)ethylamino]-1-hydroxyethyl}-2-methylbenzenesulfonamide hydrochloride]
antihypertensive effect: change in systolic blood pressure [1]: -34 ± 5.2 mmHg

Cc1ccc(C(O)CNC(C)CCc2ccccc2)cc1S(N)(=O)=O.Cl (stereo not drawn) [Example 24, 5-[1-hydroxy-2-(1-methyl-3-phenylpropylamino)ethyl]-2-methylbenzenesulfonamide hydrochloride]
antihypertensive effect: change in systolic blood pressure [1]: -27 ± 6.1 mmHg

COc1ccc(C(O)CNC(C)CCc2ccccc2)cc1S(N)(=O)=O.Cl (stereo not drawn) [Example 25, 5-[1-Hydroxy-2-(1-methyl-3-phenylpropylamino)ethyl]-2-methoxybenzenesulfonamide hydrochloride]
ED50 (α-Adrenergic; [3]): 1.3 mg/kg | ED50 (β-Adrenergic): 0.035 mg/kg

Cc1ccc(C(O)CNC(C)C2COc3ccccc3O2)cc1S(N)(=O)=O (stereo not drawn) [Example 28]
ED50 (α-Adrenergic; [3]): 1.1 mg/kg | ED50 (β-Adrenergic): 0.42 mg/kg | antihypertensive effect: change in systolic blood pressure [1]: -23 ± 4.3 mmHg

COc1cc(C(O)CNC(C)CCc2ccccc2)cc(S(N)(=O)=O)c1.Cl (stereo not drawn) [Example 30, 3-[1-Hydroxy-2-(1-methyl-3-phenylpropylamino)ethyl]-5-methoxybenzenesulfonamide hydrochloride]
ED50 (α-Adrenergic; [3]): 1.8 mg/kg | ED50 (β-Adrenergic): 0.052 mg/kg

COc1ccccc1OCC(C)NCC(O)c1ccc(OC)c(S(N)(=O)=O)c1.Cl (stereo not drawn) [Example 34, 5-{1-Hydroxy-2-[2-(2-methoxyphenoxy)-1-methylethylamino]-ethyl}-2-methoxybenzenesulfonamide hydrochloride]
ED50 (α-Adrenergic; [3]): 0.068 mg/kg | ED50 (β-Adrenergic): 0.28 mg/kg | antihypertensive effect: change in systolic blood pressure [1]: -20 ± 4.3 mmHg

CCOc1ccccc1OCC(C)NCC(O)c1ccc(C)c(S(N)(=O)=O)c1.Cl (stereo not drawn) [Example 39, 5-{1-Hydroxy-2-[2-(2-ethoxyphenoxy)-1-methylethylamino]-ethyl}-2-methylbenzenesulfonamide hydrochloride]
ED50 (α-Adrenergic; [3]): 0.066 mg/kg | ED50 (β-Adrenergic): 0.27 mg/kg | antihypertensive effect: change in systolic blood pressure [1]: -11 ± 5.5 mmHg

Cc1ccc(C(O)CNC(C)COc2ccccc2O)cc1S(N)(=O)=O.Cl (stereo not drawn) [Example 41, 5-{1-Hydroxy-2-[2-(2-hydroxyphenoxy)-1-methylethylamino]-ethyl}-2-methylbenzenesulfonamide hydrochloride]
ED50 (α-Adrenergic; [3]): 0.66 mg/kg | ED50 (β-Adrenergic): 0.044 mg/kg | antihypertensive effect: change in systolic blood pressure [1]: -30 ± 4.9 mmHg

Cc1ccc(C(O)CNCCOc2ccc(O)cc2)cc1S(N)(=O)=O.Cl (stereo not drawn) [Example 45, 5-{1-Hydroxy-2-[2-(4-hydroxyphenoxy)ethylamino]ethyl}-2-methylbenzenesulfonamide hydrochloride]
ED50 (α-Adrenergic; [3]): 0.86 mg/kg | ED50 (β-Adrenergic): 0.013 mg/kg

COc1cc(C)ccc1OCCNCC(O)c1ccc(C)c(S(N)(=O)=O)c1.Cl (stereo not drawn) [Example 46, 5-{1-Hydroxy-2-[2-(2-methoxy-4-methylphenoxy)ethylamino]-ethyl}-2-methylbenzenesulfonamide hydrochloride]
antihypertensive effect: change in systolic blood pressure [1]: -20 ± 4.5 mmHg

COc1ccccc1OCCNCC(O)c1ccc(OC)c(S(N)(=O)=O)c1.Cl (stereo not drawn) [Example 48, 5-{1-Hydroxy-2-[2-(2-methoxyphenoxy)ethylamino]ethyl}-2-methoxybenzenesulfonamide hydrochloride]
antihypertensive effect: change in systolic blood pressure [1]: -49 ± 4.9 mmHg

COc1cc(CO)ccc1OCCNCC(O)c1ccc(C)c(S(N)(=O)=O)c1 (stereo not drawn) [Example 50]
ED50 (α-Adrenergic; [3]): 0.3 mg/kg | ED50 (β-Adrenergic): 0.049 mg/kg

CCOc1cc(CO)ccc1OCCNCC(O)c1ccc(C)c(S(N)(=O)=O)c1 (stereo not drawn) [Example 52, 5-{1-Hydroxy-2-[2-(2-ethoxy-4-hydroxymethylphenoxy)ethylamino]ethyl}-2-methylbenzenesulfonamide]
ED50 (α-Adrenergic; [3]): 1.1 mg/kg | ED50 (β-Adrenergic): 0.022 mg/kg

CCOc1ccccc1OCCNCC(O)c1ccc(C)c(S(N)(=O)=O)c1.Cl (stereo not drawn) [Example 60, 5-{1-Hydroxy-2-[2-(2-ethoxyphenoxy)ethylamino]ethyl}-2-methylbenzenesulfonamide hydrochloride]
antihypertensive effect: change in systolic blood pressure [1]: -31 ± 2.8 mmHg

CCOc1ccccc1OCCNCC(O)c1ccc(OC)c(S(N)(=O)=O)c1.Cl (stereo not drawn) [Example 61, 5-{1-Hydroxy-2-[2-(2-ethoxyphenoxy)ethylamino]ethyl}-2-methoxybenzenesulfonamide hydrochloride]
antihypertensive effect: change in systolic blood pressure [1]: -54 ± 5.4 mmHg

CCOc1ccccc1OCCNCC(O)c1ccc(O)c(S(N)(=O)=O)c1.Cl (stereo not drawn) [Example 62, 2-Hydroxy-5-{1-hydroxy-2-[2-(2-ethoxyphenoxy)ethylamino]-ethyl}benzenesulfonamide hydrochloride]
antihypertensive effect: change in systolic blood pressure [1]: -47 ± 6.6 mmHg

Cc1ccc(C(O)CNCCOc2ccccc2O)cc1S(N)(=O)=O (stereo not drawn) [Example 63, 5-{1-Hydroxy-2-[2-(2-hydroxyphenoxy)ethylamino]ethyl}-2-methylbenzenesulfonamide]
ED50 (α-Adrenergic; [3]): 0.27 mg/kg | ED50 (β-Adrenergic): 0.08 mg/kg

CC(CCc1ccccc1)NCC(O)c1ccc(N)c(S(N)(=O)=O)c1 (stereo not drawn) [Example 64, 2-Amino-5-[1-hydroxy-2-(1-methyl-3-phenylpropylamino)ethyl]benzenesulfonamide]
ED50 (α-Adrenergic; [3]): 0.2 mg/kg | ED50 (β-Adrenergic): 0.12 mg/kg

CC(CCc1ccccc1)NCC(O)c1ccc(O)c(C(N)=O)c1 (stereo not drawn) [Labetalol, 5-[1-hydroxy-2-(1-methyl-3-phenyl-propyl)aminoethyl]salicylamide, reference compound]
ED50 (α-Adrenergic): 1.1 mg/kg | antihypertensive effect: change in systolic blood pressure [1]: -10 ± 3.6 mmHg
